Data set [1] has as its target T1, SARS-CoV-2 RdRp (nsp12/nsp7/nsp8) (Severe acute respiratory syndrome coronavirus 2, UniProt P0DTD1).
T1 construct: added initiator Met before nsp12 (N); made in house; host or cells: Sf9 insect cells (Spodoptera frugiperda), baculovirus
Description: FRET-based strand displacement assay (RdRp activity). To be noted: 100 nM RNA substrate, 300 µM of each NTP. The class given is biochemical.

In data set [2] the target is T1, SARS-CoV-2 RdRp (nsp12/nsp7/nsp8). Description: Gel-based polymerisation (primer-extension) assay. To be noted: compound at 50 µM, 30-min reaction, 300 nM RdRp, native PAGE. The class given is biochemical.
Data set [3] concerns SARS-CoV-2 in Vero E6 cells. Nature of the data set: Viral inhibition assay (N protein immunofluorescence). Type of data set: cell-based. Particulars: for EC50: read-out: EC50 antiviral activity against SARS-CoV-2.
The test system of the next data set is influenza infection. To be noted: treated mice; cited from earlier work.
The test system of data set [4] is influenza A viruses in A549 cells. Details: method as in PMID 26711748. Particulars: different strains, read-out: EC50 suppression of replication of influenza A viruses; cited from earlier work.
Another data set relates to Vero E6 cells. Description: Cell viability in the viral inhibition assay (DRAQ7 staining). Particulars: DRAQ7 area, concentrations tested up to 300 µM.
In data set [5] the test system is SARS-CoV-2 in Vero E6 cells. Details: method as in Zeng et al. [46]. To be noted: same protocol, ref Zeng et al. [46], read-out: EC50 against SARS-CoV-2; cited from earlier work.
Setting [6] is: Severe acute respiratory syndrome coronavirus 2, Vero C1008, Vero E6 cells, MOI 0.5 PFU/cell, 22 h, area of viral plaques by N protein staining.
Where [7] appears, read: IC50 (µM) + 0.01% Triton X-100, 150 nM RdRp, presence of 0.01% Triton X-100.
The mark [8] stands for this setting: IC50 (µM) No detergent, 150 nM RdRp, absence of Triton X-100.
[9] abbreviates: Severe acute respiratory syndrome coronavirus 2, Vero C1008, 22 h.

Where two headings read alike, the source gives them in different places.

Turning to `OC[C@@H](O)[C@H]1NC[C@@H](O)[C@H]1O` [1,4-Dideoxy-1,4-imino-D-mannitol], the “IC50 (µM) No detergent” value in data set [1] (150 nM RdRp, absence of Triton X-100) is “no cl ear i nhi bi ti”. Further, in data set [1] (150 nM RdRp, presence of 0.01% Triton X-100), the “IC50 (µM) + 0.01% Triton X-100” value is given as “no cl ear i nhi bi ti”.

Consider `CC(C)C(C(=O)O)N1C(=O)/C(=C/c2ccc(Br)cc2)SC1=S` (stereo not shown) [BH3I-1], for which, in data set [2], the “Inhibition of RNA duplex formation” value is recorded as “inhibited RNA duplex formation almost completely”. Also, the 50% effective concentration (EC50) in data set [3] (setting [6]) amounted to 77 µM. Also, the IC50 in data set [1] (setting [7]) came out at 13 µM; in data set [1] (setting [8]), 14 µM.

In the case of `CC1=NN(c2ccc(C(=O)O)cc2)C(=O)C1=Cc1ccc(-c2cc(C)c(C)cc2[N+](=O)[O-])o1` [C646], the “Inhibition of RNA duplex formation” value in data set [2] is “inhibited RNA duplex formation almost completely”. For the same compound, in the data set on influenza infection, the “Toxicity in murine models of influenza infection” value is on record as “no associated toxicity”. The “Viral replication in murine models of influenza infection” value in the data set on influenza infection is given as “significant reduction in viral replication”. Also, the EC50 in data set [3] (setting [6]) was 19 µM; in data set [4] it was 16 µM. In addition, the 50% inhibitory concentration (IC50) in data set [1] (setting [7]) turned out to be 7.8 µM; in data set [1] (setting [8]), 6.1 µM.

As for `NC(=O)c1cc[n+](CC2=C(C(=O)O)N3C(=O)[C@@H](NC(=O)[C@@H](c4ccccc4)S(=O)(=O)[O-])[C@H]3SC2)cc1` [Cefsulodin], the “Inhibition of RNA duplex formation” value in data set [2] was “partial inhibition”. The EC50 in data set [3] (setting [9]) came to 108 µM. Also, the IC50 in data set [1] (setting [7]) was determined as 49 µM; in data set [1] (setting [8]) it was 50 µM.

In the case of `Nc1c(C(=O)O)c2nc3c(C(=O)O)cccc3oc-2cc1=O` [Cinnabarinic Acid], the IC50 in data set [1] (setting [7]) and in data set [1] (setting [8]) was greater than 100 µM throughout.

`O=C(O)c1ccc(-c2c[nH]c3ncc(-c4ccccc4)cc23)cc1C1CCCC1` [GSK-650394]: the “Inhibition of RNA duplex formation” value in data set [2] was “partial inhibition”. Further, the EC50 in data set [3] (setting [9]) was determined as 7.6 µM. Moreover, the IC50 in data set [1] (setting [7]) came to 29 µM; in data set [1] (setting [8]), 31 µM. In addition, in the data set on Vero E6 cells, the “Concentration at which cytotoxicity was seen” value is listed as 300 µM.

Regarding `O=C1C(=O)N(Cc2ccc(Cl)c(Cl)c2)c2ccccc21` [MDK-83190], the EC50 in data set [3] (setting [9]) amounted to 81 µM.

In the case of `CCC(CC)COC(=O)[C@H](C)N[P@](=O)(OC[C@H]1O[C@@](C#N)(c2ccc3c(N)ncnn23)[C@H](O)[C@@H]1O)Oc1ccccc1` [Remdesivir], the inhibition at 0.5 µM in data set [3] (Severe acute respiratory syndrome coronavirus 2, Vero C1008, 0.5 µM, Vero E6 cells, read-out: Inhibition of viral infection as a single agent) is less than 10%. For the same compound, the EC50 in data set [3] (setting [6]) turned out to be 1.8 µM.

Consider `Cc1ccc(C(=O)Nc2ccc(S(=O)(=O)O)c3cc(S(=O)(=O)O)cc(S(=O)(=O)O)c23)cc1NC(=O)c1cccc(NC(=O)Nc2cccc(C(=O)Nc3cc(C(=O)Nc4ccc(S(=O)(=O)O)c5cc(S(=O)(=O)O)cc(S(=O)(=O)O)c45)ccc3C)c2)c1` [Suramin], for which, in data set [2], the “Inhibition of RNA duplex formation” value is given as “inhibited RNA duplex formation almost completely”. Further, the values for the half-maximal inhibitory concentration (IC50) in data set [1] (setting [7]) and in data set [1] (setting [8]) were 0.78 µM and 0.43 µM, respectively. For the same compound, the concentration for a half-maximal effect (EC50) in data set [5] was 9.9 µM.

The record behind these values is PMC8286815 (Biochemical Journal, 2021).
